Measured values reported in ChEMBL document CHEMBL1201861, “Genomics of Drug Sensitity in Cancer screening data, Wellcome Trust Sanger Institute”.

Assays:
Assay in all cases: cells
Settings in all cases: Homo sapiens
CW-2 = type: functional, cell-based;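 also: growth inhibition of CW-2 cells, read out by a cell viability assay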
Description: SANGER: Inhibition of human CW-2 cell growth in a cell viability assay.

D-502MG = type: functional, cell-based
Description: SANGER: Inhibition of human D-502MG cell growth in a cell viability assay.

DJM-1 = type: functional, cell-based;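 also: growth inhibition of human DJM-1 cells, read out by a cell viability assay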
Description: SANGER: Inhibition of human DJM-1 cell growth in a cell viability assay.

DOHH-2 = type: functional, cell-based;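 also: growth inhibition of human DOHH-2 cells, read out with a cell viability assay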
Description: SANGER: Inhibition of human DOHH-2 cell growth in a cell viability assay.

EKVX = type: functional, cell-based;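 also: growth inhibition of human EKVX cells, read out with a cell viability assay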
Description: SANGER: Inhibition of human EKVX cell growth in a cell viability assay.

ES5 = type: functional, cell-based;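 also: growth inhibition of human ES5 cells, read out by a cell viability assay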
Description: SANGER: Inhibition of human ES5 cell growth in a cell viability assay.

EW-1 = type: functional, cell-based;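 also: growth inhibition of the human EW-1 cell line, read out by a cell viability assay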
Description: SANGER: Inhibition of human EW-1 cell growth in a cell viability assay.

GCIY = type: functional, cell-based;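 also: growth inhibition of the human GCIY cell line, read out by a cell viability assay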
Description: SANGER: Inhibition of human GCIY cell growth in a cell viability assay.

HC-1 = type: functional, cell-based;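 also: growth inhibition of HC-1 cells measured by a cell viability assay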
Description: SANGER: Inhibition of human HC-1 cell growth in a cell viability assay.

HCC2218 = type: functional, cell-based;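 also: cell viability assay read-out, with IC50 given as the concentration that inhibits growth of the cell line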
Description: SANGER: Inhibition of human HCC2218 cell growth in a cell viability assay.

HCE-T = type: functional, cell-based;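 also: cell viability assay read-out, reporting inhibition of HCE-T cell growth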
Description: SANGER: Inhibition of human HCE-T cell growth in a cell viability assay.

HH = type: functional, cell-based
Description: SANGER: Inhibition of human HH cell growth in a cell viability assay.

HOP-62 = type: functional, cell-based;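 also: cell growth inhibition determined with a viability assay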
Description: SANGER: Inhibition of human HOP-62 cell growth in a cell viability assay.

HuTu80 = type: functional, cell-based, HUTU-80;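 also: growth inhibition of HuTu80 human cells, determined with a cell viability readout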
Description: SANGER: Inhibition of human HUTU-80 cell growth in a cell viability assay.

IA-LM = type: functional, cell-based;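 also: cell viability assay measuring growth inhibition of human IA-LM cells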
Description: SANGER: Inhibition of human IA-LM cell growth in a cell viability assay.

KARPAS-299 = type: functional, cell-based
Description: SANGER: Inhibition of human KARPAS-299 cell growth in a cell viability assay.

KARPAS-45 = type: functional, cell-based;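 also: inhibition of cell line growth, read out through a viability assay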
Description: SANGER: Inhibition of human KARPAS-45 cell growth in a cell viability assay.

KINGS-1 = type: functional, cell-based;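 also: cell viability assay measuring suppression of KINGS-1 cell growth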
Description: SANGER: Inhibition of human KINGS-1 cell growth in a cell viability assay.

KLE = type: functional, cell-based;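 also: growth inhibition of human KLE cells, read out with a cell viability assay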
Description: SANGER: Inhibition of human KLE cell growth in a cell viability assay.

KMOE-2 = type: functional, cell-based;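 also: growth inhibition of human KMOE-2 cells, read out with a cell viability assay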
Description: SANGER: Inhibition of human KMOE-2 cell growth in a cell viability assay.

KS-1 = type: functional, cell-based;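 also: growth inhibition of KS-1 cells, read out with a cell viability assay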
Description: SANGER: Inhibition of human KS-1 cell growth in a cell viability assay.

KURAMOCHI = type: functional, cell-based;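 also: growth inhibition of KURAMOCHI cells, read out with a cell viability assay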
Description: SANGER: Inhibition of human KURAMOCHI cell growth in a cell viability assay.

KY821 = type: functional, cell-based;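 also: growth inhibition of human KY821 cells, read out by a cell viability assay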
Description: SANGER: Inhibition of human KY821 cell growth in a cell viability assay.

LAN-6 = type: functional, cell-based;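 also: growth inhibition of LAN-6 cells, determined with a cell viability assay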
Description: SANGER: Inhibition of human LAN-6 cell growth in a cell viability assay.

LNCaP-Clone-FGC = type: functional, cell-based
Description: SANGER: Inhibition of human LNCaP-Clone-FGC cell growth in a cell viability assay.

LS-1034 = type: functional, cell-based
Description: SANGER: Inhibition of human LS-1034 cell growth in a cell viability assay.

LS-513 = type: functional, cell-based
Description: SANGER: Inhibition of human LS-513 cell growth in a cell viability assay.

LU-134-A = type: functional, cell-based
Description: SANGER: Inhibition of human LU-134-A cell growth in a cell viability assay.

Lu-65 = type: functional, cell-based;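 also: growth inhibition of Lu-65 cancer cells, read out by a cell viability assay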
Description: SANGER: Inhibition of human LU-65 cell growth in a cell viability assay.

LXF-289 cell line = type: functional, cell-based
Description: SANGER: Inhibition of human LXF-289 cell growth in a cell viability assay.

MHH-NB-11 = type: functional, cell-based;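 also: growth inhibition of human MHH-NB-11 cells, read out by a cell viability assay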
Description: SANGER: Inhibition of human MHH-NB-11 cell growth in a cell viability assay.

MHH-PREB-1 = type: functional, cell-based;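 also: cell viability assay measuring inhibition of proliferation of human MHH-PREB-1 cells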
Description: SANGER: Inhibition of human MHH-PREB-1 cell growth in a cell viability assay.

MLMA = type: functional, cell-based;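 also: growth inhibition of MLMA cells (human), determined through a cell viability readout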
Description: SANGER: Inhibition of human MLMA cell growth in a cell viability assay.

MSTO-211H = type: functional, cell-based
Description: SANGER: Inhibition of human MSTO-211H cell growth in a cell viability assay.

Mo = type: functional, cell-based
Description: SANGER: Inhibition of human Mo-T cell growth in a cell viability assay.

NB6 = type: functional, cell-based;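 also: growth inhibition of NB6 cells, read out by a cell viability assay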
Description: SANGER: Inhibition of human NB6 cell growth in a cell viability assay.

NCI-H1155 = type: functional, cell-based;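 also: cell growth inhibition measured by a viability assay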
Description: SANGER: Inhibition of human NCI-H1155 cell growth in a cell viability assay.

NCI-H69 = type: functional, cell-based;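 also: growth inhibition of the cell line, read out with a cell viability assay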
Description: SANGER: Inhibition of human NCI-H69 cell growth in a cell viability assay.

NCI-H747 = type: functional, cell-based;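 also: growth inhibition of human NCI-H747 cells, read out by a cell viability assay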
Description: SANGER: Inhibition of human NCI-H747 cell growth in a cell viability assay.

SNU1 = type: functional, cell-based;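 also: growth inhibition of human NCI-SNU-1 cells, measured with a cell viability assay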
Description: SANGER: Inhibition of human NCI-SNU-1 cell growth in a cell viability assay.

NEC8 = type: functional, cell-based;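 also: growth inhibition of human NEC8 cells, read out by a cell viability assay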
Description: SANGER: Inhibition of human NEC8 cell growth in a cell viability assay.

NOMO-1 = type: functional, cell-based;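 also: growth inhibition of human NOMO-1 cells measured by a cell viability assay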
Description: SANGER: Inhibition of human NOMO-1 cell growth in a cell viability assay.

NOS-1 = type: functional, cell-based;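 also: growth inhibition of the human NOS-1 cell line, read out with a cell viability assay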
Description: SANGER: Inhibition of human NOS-1 cell growth in a cell viability assay.

OMC-1 = type: functional, cell-based;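 also: growth inhibition of the OMC-1 cell line, measured by a cell viability assay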
Description: SANGER: Inhibition of human OMC-1 cell growth in a cell viability assay.

ONS-76 = type: functional, cell-based;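 also: growth inhibition of human ONS-76 cells, read out with a cell viability assay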
Description: SANGER: Inhibition of human ONS-76 cell growth in a cell viability assay.

P30-OHK = type: functional, cell-based;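 also: growth inhibition of the P30-OHK cell line, read out with a cell viability assay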
Description: SANGER: Inhibition of human P30-OHK cell growth in a cell viability assay.

QIMR-WIL = type: functional, cell-based;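 also: growth inhibition of QIMR-WIL cells, read out with a cell viability assay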
Description: SANGER: Inhibition of human QIMR-WIL cell growth in a cell viability assay.

RPMI-8866 = type: functional, cell-based
Description: SANGER: Inhibition of human RPMI-8866 cell growth in a cell viability assay.

Ramos-2G6-4C10 = type: functional, cell-based;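 also: growth inhibition of the cell line, measured by a cell viability read-out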
Description: SANGER: Inhibition of human Ramos-2G6-4C10 cell growth in a cell viability assay.

SF-126 = type: functional, cell-based;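 also: growth inhibition of human SF126 cells, read out with a cell viability assay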
Description: SANGER: Inhibition of human SF126 cell growth in a cell viability assay.

SK-LMS-1 = type: functional, cell-based;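 also: growth inhibition of human SK-LMS-1 cells, read out with a cell viability assay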
Description: SANGER: Inhibition of human SK-LMS-1 cell growth in a cell viability assay.

SK-NEP-1 = type: functional, cell-based;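 also: growth inhibition of human SK-NEP-1 cells, read out by a cell viability assay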
Description: SANGER: Inhibition of human SK-NEP-1 cell growth in a cell viability assay.

SNU-C2B = type: functional, cell-based;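 also: cell viability readout used to measure compound-driven suppression of SNU-C2B cell proliferation, IC50 marking half-maximal growth inhibition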
Description: SANGER: Inhibition of human SNU-C2B cell growth in a cell viability assay.

SW 962 = type: functional, cell-based;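 also: growth inhibition of human SW962 cells, read out by a cell viability assay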
Description: SANGER: Inhibition of human SW962 cell growth in a cell viability assay.

SW982 = type: functional, cell-based;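 also: growth inhibition of SW982 cells, read out with a cell viability assay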
Description: SANGER: Inhibition of human SW982 cell growth in a cell viability assay.

8-MG-BA = type: functional, cell-based;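 also: growth inhibition of 8-MG-BA cells, read out with a cell viability assay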
Description: SANGER: Inhibition of human 8-MG-BA cell growth in a cell viability assay.

A704 = type: functional, cell-based;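 also: growth inhibition of human A704 cells, read out with a cell viability assay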
Description: SANGER: Inhibition of human A704 cell growth in a cell viability assay.

BB30-HNC = type: functional, cell-based;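 also: growth inhibition of the cultured cell line, read out by a cell viability assay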
Description: SANGER: Inhibition of human BB30-HNC cell growth in a cell viability assay.

C8166 = type: functional, cell-based;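 also: growth inhibition of human C8166 cells measured by a cell viability assay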
Description: SANGER: Inhibition of human C8166 cell growth in a cell viability assay.

TE-8 = type: functional, cell-based
Description: SANGER: Inhibition of human TE-8 cell growth in a cell viability assay.

TGBC24TKB = type: functional, cell-based
Description: SANGER: Inhibition of human TGBC24TKB cell growth in a cell viability assay.

TK-10 = type: functional, cell-based
Description: SANGER: Inhibition of human TK10 cell growth in a cell viability assay.

U-87 MG = type: functional, cell-based, U-87MG ATCC
Description: SANGER: Inhibition of human U-87-MG cell growth in a cell viability assay.

CCRF-CEM = type: functional, cell-based
Description: SANGER: Inhibition of human CCRF-CEM cell growth in a cell viability assay.

COLO-668 = type: functional, cell-based
Description: SANGER: Inhibition of human COLO-668 cell growth in a cell viability assay.

Measured: IC50

C[C@]1(c2nc3c(C(N)=O)cccc3[nH]2)CCCN1 [VELIPARIB]
> 5 µM: CW-2 | D-502MG | DJM-1 | DOHH-2 | EKVX | ES5 | EW-1 | GCIY | HC-1 | HCC2218 | HCE-T | HH | HOP-62 | HuTu80 | IA-LM | KARPAS-299 | KARPAS-45 | KINGS-1 | KLE | KMOE-2 | KS-1 | KURAMOCHI | KY821 | LAN-6 | LNCaP-Clone-FGC | LS-1034 | LS-513 | LU-134-A | Lu-65 | LXF-289 cell line | MHH-NB-11 | MHH-PREB-1 | MLMA | MSTO-211H | Mo | NB6 | NCI-H1155 | NCI-H69 | NCI-H747 | SNU1 | NEC8 | NOMO-1 | NOS-1 | OMC-1 | ONS-76 | P30-OHK | QIMR-WIL | RPMI-8866 | Ramos-2G6-4C10 | SF-126 | SK-LMS-1 | SK-NEP-1 | SNU-C2B | SW 962 | SW982 | 8-MG-BA | A704 | BB30-HNC | C8166 | TE-8 | TGBC24TKB | TK-10 | U-87 MG | CCRF-CEM | COLO-668
